Results reported in patent US11608313B2, “Adamantylmethylamine derivative and use thereof as pharmaceutical” (TOHOKU UNIVERSITY, priority 2017, dated 2023).

Assays:
Format in all cases: in vivo
amyloid-β (Aβ) = experiment: Aβ aggregation in brain slices of APP23 mice (6E10 and thioflavin staining); settings: APP23 mice 14 month-old, chronic oral treatment for 2 months, 1 mg/kg
Method: The amyloid-β (Aβ) hypothesis regarding the pathogenesis of Alzheimer's disease has still been of great importance. It has been confirmed by immunostaining that Aβ aggregation occurs in APP23 mice (14 month-old). 50 μm brain slices were prepared from each of WT (control) and APP23 mice, and stained with 6E10 (anti-Aβ antibody, produced by Abcam) and thioflavin. The other conditions were in line with conventional immunostaining methods. […] Aβ aggregation was suppressed by chronic treatment with TP-014 (chronic oral treatment for 2 months (1 mg/kg)).

CaMKIV-deficient mice = experiment: Tail-suspension test and forced swim test in CaMKIV-deficient mice; settings: chronic oral treatment for 2 weeks, 1 mg/kg
Method: By following the same procedure as in Test Example 12, CaMKIV-deficient mice (n=5*per group) were analyzed for CaMKIV induced by Kir6.1 channels.
The CaMKIV-deficient mice were obtained from professor Hiroyuki Sakagami, Kitasato University School of Medicine (Takao K., et al., PLoS One 2010, 5, e9460).

CaMKII = CaMKII activation in hippocampus of Kir6.2-deficient mice (immunoblotting); settings: chronic treatment
Excerpt: By following the same procedure as in Test Examples 4 to 7, hippocampal slices were suspended in an SDS sample buffer and analyzed by immunoblotting for GluAl (Ser-831), which is known as a molecule that is activated by activation of CaMKII and CaMKIV, to thereby investigate the intracellular mechanism of cognitive function impairment in Kir6.2-deficient mice. The results are shown in FIGS. 9-1 and 9-2 (FIG. 9-1: band images obtained by immunoblotting; FIG. 9-2: results of quantification of the signal intensity of bands). In the hippocampus of the Kir6.2-deficient mice, increased CaMKII activation was seen and no effect was found of chronic treatment with TP-014.

OBX mice = experiment: Tail-suspension test and forced swim test in OBX mice (depression model); settings: chronic oral treatment for 2 weeks, 1 mg/kg
Method: OBX mice were used as a depression model to determine the effect of TP-014 (chronic oral treatment for 2 weeks (1 mg/kg)) to ameliorate a depression-like symptom. OBX mice are reported to show a decline in cognitive function, but have originally been established as a depression model. Depression analysis was done by tail-suspension test and forced swim test. In the tail-suspension test, mice are hung upside-down by their tail. If the hung mice are affected by depression, they show a longer immobility time. The immobility time of normal mice is shorter since they move actively when hung. In the forced swim test, mice are forced to swim in a beaker filled with water. Depression mice neither swim nor move (just float). The time (immobility time(s)) for which mice stay still in such a way is measured.
The same model mice were orally treated with a single dose of each of the test compounds (1 mg/kg), and analyzed after 1 hour by tail-suspension test and forced swim test. The results are shown in FIGS. 22-1 (tail-suspension test) and 22-2 (forced swim test).

[1] = test system: Alzheimer's disease model mice (APP23 mice); experiment: Cognitive function in Alzheimer's disease model mice (Test Example 4); settings: APP23 mice 12 month-old, 1 mg/kg orally once a day for two months
Excerpt: The test compound was orally administered in a dissolved state in a 0.5% aqueous solution of carboxymethyl cellulose (vehicle) (the same applies hereunder).

ob/ob mice = experiment: Blood glucose levels in ob/ob mice; settings: chronic treatment 1 mg/kg for 4 weeks, on and after week 3
Method: In order to determine the hypoglycemic effect of TP-014, ob/ob mice were measured for blood glucose levels using an assay kit (produced by Technicon International Inc.). The measurement was taken for 4 weeks, and chronic treatment with TP-014 (1 mg/kg) was continued for 4 weeks. […] Tolbutamide was used as a control drug. Kir6.2 channels bind to SUR1 ([…]) on the cell membrane to form channels. The mechanism of action is considered to be inhibition of Kir6.2 channels. Tolbutamide inhibits Kir6.2 channels by binding to SUR1.

[2] = test system: olfactory bulbectomized mice (OBX mice); experiment: Cognitive function in olfactory bulbectomized mice (Y-maze, novel object recognition and other tests); settings: chronic oral treatment for 2 weeks
Method: The same experiment as in Test Example 4 was carried out using olfactory bulbectomized mice (OBX mice) as a neurodegenerative disease model. […] The OBX mice were prepared from 10-week-old DDY male mice (Nippon SLC, Hamamatsu, Japan). Olfactory bulbectomy surgery was carried out under anesthesia with pentobarbital sodium (50 mg/kg i.p.; Dainippon, Osaka, Japan). The mice were fixed on a stereotaxic apparatus to drill a 1 mm diameter hole in the skull above the olfactory bulb. The olfactory bulb was aspirated without causing damage to the prefrontal cortex. A sham group was prepared by the same procedure as that for the OBX group, without aspiration of olfactory bulb. One week was allowed for recovery from surgery, and behavioral analyses were performed on the day following the treatment with the test compound for 14 days (2 weeks).
The same model mice as described above were orally treated with a single dose of each of the test compounds (1 mg/kg), and analyzed after 1 hour by Y-maze test and novel object recognition test. The results are shown in FIGS. 22-3 and 22-4 (Y-maze test), and FIG. 22-5 (novel object recognition test).

## O=C(N[C@@H](c1ccccc1)[C@H]1[C@H]2C[C@@H]3C[C@](Cl)(C2)C[C@@]1(OC(=O)C(F)(F)F)C3)C(F)(F)F [TP-014, (1S,2R,3S,5S,7S)-5-chloro-2-((R)-phenyl(2,2,2-trifluoroacetamido)methyl)adamantan-1-yl 2,2,2-trifluoroacetate]
amyloid-β (Aβ)
  Aβ aggregation: suppressed
CaMKIV-deficient mice
  depression-like symptom (increased immobility time): no effect
CaMKII
  CaMKII activation in hippocampus: no effect
OBX mice
  immobility time (tail-suspension test and forced swim test): improved
[1]
  cognitive function enhancing effect: significant cognitive function enhancing effect
ob/ob mice
  blood glucose levels: significantly decreased
[2]
  cognitive function impairment: significantly improved
